Experimental data from the NIST ThermoML archive (doi:10.1016/j.tca.2010.05.016).
Numbers after ± are expanded uncertainties.

Assay: mn = molality of the nth substance listed, in mol/kg
Details: 101 kPa, Liquid; for speed of sound: Vibrating Tube; for mass density: Vibrating tube method

NCC(=O)NCC(=O)NCC(=O)O [glycylglycylglycine] + O
Details | mass density, 288.15 K [kg/m3] | mass density, 293.15 K [kg/m3] | mass density, 298.15 K [kg/m3] | mass density, 303.15 K [kg/m3] | mass density, 308.15 K [kg/m3] | speed of sound, 288.15 K [m/s] | speed of sound, 293.15 K [m/s] | speed of sound, 298.15 K [m/s] | speed of sound, 303.15 K [m/s] | speed of sound, 308.15 K [m/s]
m1 = 0.03587 | 1001.94 ± 0.042 | 1001 ± 0.041 | 999.808 ± 0.041 | 998.381 ± 0.042 | 996.783 ± 0.043 | 1470.6 ± 3.3 | 1486.7 ± 3.3 | 1500.8 ± 3.3 | 1512.9 ± 3.3 | 1523.3 ± 3.3
m1 = 0.04684 | 1002.79 ± 0.042 | 1001.85 ± 0.042 | 1000.64 ± 0.041 | 999.208 ± 0.042 | 997.565 ± 0.042 | 1471.6 ± 3.3 | 1487.8 ± 3.3 | 1501.8 ± 3.3 | 1514 ± 3.3 | 1524.3 ± 3.3
m1 = 0.05855 | 1003.69 ± 0.043 | 1002.74 ± 0.043 | 1001.52 ± 0.042 | 1000.08 ± 0.042 | 998.435 ± 0.042 | 1473 ± 3.3 | 1489 ± 3.3 | 1503 ± 3.3 | 1515.1 ± 3.3 | 1525.4 ± 3.3
m1 = 0.06301 | 1004.03 ± 0.043 | 1003.07 ± 0.043 | 1001.86 ± 0.042 | 1000.41 ± 0.042 | 998.76 ± 0.042 | 1473.4 ± 3.3 | 1489.4 ± 3.3 | 1503.4 ± 3.3 | 1515.5 ± 3.3 | 1525.8 ± 3.3
m1 = 0.07743 | 1005.13 ± 0.044 | 1004.16 ± 0.044 | 1002.93 ± 0.044 | 1001.54 ± 0.043 | 999.825 ± 0.042 | 1475 ± 3.3 | 1490.8 ± 3.3 | 1504.8 ± 3.3 | 1516.8 ± 3.3 | 1527.3 ± 3.3
m1 = 0.09073 | 1006.13 ± 0.046 | 1005.15 ± 0.045 | 1003.92 ± 0.045 | 1002.46 ± 0.044 | 1000.79 ± 0.043 | 1476.5 ± 3.3 | 1492.6 ± 3.3 | 1506 ± 3.3 | 1518.4 ± 3.3 | 1528.5 ± 3.3
m1 = 0.1016 | 1006.95 ± 0.046 | 1005.96 ± 0.046 | 1004.73 ± 0.045 | 1003.26 ± 0.045 | 1001.58 ± 0.044 | 1477.7 ± 3.3 | 1493.4 ± 3.3 | 1507.3 ± 3.3 | 1519.3 ± 3.3 | 1529.5 ± 3.3
